Assay results: patent US9617324B2, “Ameliorating agent for blood-brain barrier dysfunction” (Nagasaki University, priority 2012, dated 2017)
Entries after “also recorded” stand apart in the source; their conditions may differ. Where two headings read alike, the source gives them in different places. No end group written: not given here.

Legend:
[1] = tested on: thrombotic cerebral infarction PIT model
[2] = tested on: model mice of cerebral ischemia (tMCAO); test: tMCAO (ischemia for an hour, reperfusion) model, clinical scores of motor dysfunction; assay type: in vivo, mouse; conditions: for protective effect on motor dysfunction: i.v. after an hour after ischemia, 1 to 10 mg/kg
Description: The model mice of cerebral ischemia produced by left middle cerebral artery occlusion in C57BL/J6 mice were maintained for an hour, followed by reperfusion. P30 (1 mg/kg or 3 mg/kg) or P6 (1 mg/kg) was administered into the caudal vein after an hour of reperfusion. Thereafter, the course of the mice was observed every 24 hours to evaluate motor function and existence. The clinical scores showing motor dysfunction are evaluated using the following five grades: 1: unable to completely extend the right front limb, 2: clockwise circling behavior, 3: unable to hold the position and incline to the right, 4: disappearance of spontaneous movement, and 5: death.
In FIG. 5, the data indicated by white squire indicate values when 0.1% DMSO in PBS (vehicle) was administered into the caudal vein in an amount of 100 μl/10 g after an hour of tMCAO for an hour. […] Black circle and black rhombus in the upper graph indicate the results of 1 mg/kg and 3 mg/kg P30 intravenous (i.v.) administration, respectively, and black circle in the lower graph indicates the results of 1 mg/kg P6 intravenous (i.v.) administration.
(§1) To evaluate the degree of motor function disorders associated with cerebral ischemia, the neurological scores (Clinical Scores) according to the following definition were used. In addition, two grade evaluation was carried out using numerical values 1 to 4 (when scores 1 and 2 were shown, 1.5 was used).
(§2) 1: motor function disorders of the right front limb, 2: one-directional behavior, 3: unable to hold the position and incline, 4: disappearance of spontaneous movement, and 5: death.

[3] = tested on: tMCAO model (ischemia for 4 hours), tPA-induced motor dysfunction; test: tMCAO for four hours with tPA: clinical score and mortality after a day; assay type: in vivo, mouse; conditions: for death of mice: 10 mg/kg peptide with tPA after 4 hours of tMCAO ischemia
Description: After tMCAO for four hours, the clinical score and mortality rate were evaluated after a day (FIG. 8). […] The tMCAO for four hours corresponds to the state after 3 hours from the onset of ischemic diseases.
as §1, §2

[4] = tested on: thrombotic cerebral infarction PIT model; test: PIT model: damaged cerebral region by TTC staining; assay type: in vivo, mouse; conditions: for damaged cerebral region by TTC staining: second Example 13
[5] = tested on: tMCAO model (ischemia for 4 hours), tPA-induced cerebral hemorrhage
Description: Mice were anesthetized with 3% isoflurane (Escain (registered trademark), Mylan Seiyaku Ltd., Tokyo, Japan) (Small animal anesthetizer MK-A100, Muromachi Kikai Co., Ltd., Tokyo, Japan). On a constant-temperature table at 37° C. (Ikemoto Scientific Technology Co., Ltd., Tokyo, Japan), the skin in the pharyngeal region is cut lengthwise into about 2 cm with scissors. The skin was drawn to the right using a hard silk thread (hard No. 8, Natsume Seisakusho Co., Ltd.) to secure a visual field. Using a stereoscopic microscope, the left common carotid artery which is located on the left side of the trachea is secured with a hard silk thread while exfoliating connective tissue, nerves and the like. By following the common carotid artery upward, the artery is separated into the internal carotid artery and the external carotid artery, and the external carotid artery on the left near side is tightly tied at two points with a soft silk thread and the space between the points is cut. A thin vessel extending upward from the internal carotid artery is secured with a soft silk thread. The soft silk thread and hard silk thread are strongly drawn to stop blood flow and an incision is made in the internal carotid artery with scissors. From that, an obturator is inserted 1 to 1.5 cm and the middle cerebral artery is occluded. The internal carotid artery was tied together with the obturator using a soft silk thread to fix the obturator. A soft silk thread is passed under the hard silk thread drawing and the common carotid artery is tied thereby on the near side of the hard silk thread, and the hard silk thread is then removed. The breath is sutured at two points with a soft silk thread. In the case of the model of transient middle cerebral artery occlusion (tMCAO) of the present problem, anesthesia was applied to the mice with 3% isoflurane again after an hour or 4 hours on a constant-temperature table at 37° C., and the soft silk thread suturing the breath is untied to open the breath. The soft silk thread tying the internal carotid artery was loosened and the obturator was withdrawn, and the internal carotid artery was immediately tied again.

proMMP-9 = test: Gelatin zymography of proMMP-9 activity after retinal ischemia; assay type: in vivo, mouse; conditions: 1 pmol
Text: It is known that a tight junction protein, occluding, is degraded by metalloproteinases (MMP) whose expression is increased by ischemia (J Cereb Blood Flow Metab, 2007. 27(4): p. 697-709). It is believed that MMP-9, in particular, plays a primary role in a failure of a blood-organ barrier by ischemia (J Cereb Blood Flow Metab, 2000. 20(12): p. 1681-9).
The expression level of MMP-9 is commonly low and the expression is derived by various stimuli by ischemia.

[6] = second Example 13, peptide in combination with tPA, peptide dose not given
[7] = peptide in combination with tPA, peptide dose not given

For “pEEVDEE (not fully specified (residue 1); listed as Homo sapiens) [Peptide D, P6 derivative peptide]”, the Clinical score [1, 6] was 1±0, the “protective effect on motor dysfunction” value [2] was “not as good as that of Peptide A and Peptide B” and the death of mice [3] was “all mice were died”. The “damaged cerebral region by TTC staining” value [4, 7] was 52±7.2%.

For NEVDQE [Peptide A, NEVDQE], the “hemorrhage in the cerebral cortex region” value ([5]; mouse, in vivo, iv, 1 mg/kg) was 0.09±0.01 mm^2, the “hemorrhage in the cerebral cortex region” value ([5]; mouse, in vivo, iv, 3 mg/kg) was 0.06±0.01 mm^2 and the “hemorrhage in the cerebral cortex region” value ([5]; mouse, in vivo, iv, 10 mg/kg) was 0.08±0.01 mm^2.

NEVDEE [Peptide P6, NEVDEE] was tested, and the cerebral hemorrhage ([5]; mouse, in vivo) was “trend to exacerbate cerebral hemorrhage”.

With “Peptide L: P6 derivative peptide (NEIDEE)” the Clinical score [1, 6] was 1.3±0.2 and the “damaged cerebral region by TTC staining” value [4, 7] was 46±5.6%.

For “Peptide S: P6 derivative peptide (EEVDEE)”, the Clinical score [1, 6] was 1.1±0.2 and the “damaged cerebral region by TTC staining” value [4, 7] was 51±5.7%.

“tPA: thrombolytic agent, tissue plasminogen activator, purchased from Kyowa Hakko Kirin Co., Ltd. [reference compound]” was tested, and the Clinical score ([1]; Example 12, tPA-alone after 6 hours of PIT treatment) was 1.5±0.2, the Clinical score ([1]; second Example 13, tPA alone after 6 hours of PIT treatment) was 1.4±0.1 and the “mortality rate after a day of ischemia” value ([3]; 10 mg/kg tPA alone) was 35.7%. The “motor dysfunction (clinical score) after a day” value ([3]; 10 mg/kg tPA alone, immediately before reperfusion) was “deteriorated”, the “motor dysfunction score after a day” value ([3]; 10 mg/kg tPA treatment, tMCAO ischemia for 4 hours, score 2 without tPA) was 3.5 and the hemorrhagic region ([5]; mouse, in vivo, iv, 10 mg/kg) was 0.7±0.2 mm^2. For the same substance, the “damaged cerebral region by TTC staining” value ([4]; tPA alone after 6 hours of PIT treatment) was 44±2.6%, the “protective effect (infarct region)” value ([4]; tPA administered after 6 hours of ischemia) was “the protective effect was not confirmed” and the infarct region ([4]; tPA treatment after an hour after thrombus formation) was “significant decrease in the infarct region”. The “protective effect (infarct region)” value ([4]; tPA treatment time delayed (2 to 4 hours)) was “protective effect was reduced”.

“Peptide Q: P6 derivative peptide (EEVDQE)” was tested, and the Clinical score [1, 6] was 1.7±0.5 and the “damaged cerebral region by TTC staining” value [4, 7] was 55±1.4%.

With “pEEVNEE (not fully specified (residue 1); listed as Homo sapiens) [Peptide B, P6 derivative peptide]” the Clinical score [1, 6] was 1±0, the “protective effect on motor dysfunction” value [2] was “dose-dependently protective effect on motor dysfunction; also recorded: high protective activity” and the “dose showing the (greatest) protective effect on motor dysfunction” value ([2]; i.v., tMCAO 60 min ischemia) was 10 mg/kg. The “tPA-induced exacerbation of motor dysfunction” value ([3]; 10 mg/kg peptide coadministered i.v. with tPA, 24 hours after ischemia) was “tended to inhibit”, the tPA-induced cerebral hemorrhage ([5]; 10 mg/kg peptide coadministered with tPA) was “did not have an influence” and the “damaged cerebral region by TTC staining” value [4, 7] was 42±6.1%.

In the case of “Peptide P: P6 derivative peptide (EEVNEE)”, the Clinical score [1, 6] is reported as 1.1±0.1 and the “damaged cerebral region by TTC staining” value [4, 7] is reported as 47±5.1%.

For “Ac-NEVDEE-NH2 [Peptide F, N-acetyl-P6-amide]”, the Clinical score [1, 6] was 1.2±0.2 and the “increase in activity of proMMP-9 by ischemia” value (proMMP-9) was “effect equal to that of P6”.

NEVDEE-NH2 [Peptide E, NEVDEE-NH2] was tested, and the death of mice [3] was “all mice were died”.

For “Peptide R: P6 derivative peptide (EEVDQE)”, the Clinical score [1, 6] was 1.1±0.1 and the “damaged cerebral region by TTC staining” value [4, 7] was 54±4.5%.
